Holding throughout (test): NCI anticancer screen, dose series, 48 h
The subject of assay [1] is CCRF-CEM.
The test system of assay [2] is COLO 205.
In assay [3] the test system is HCC 2998.
Assay [4] has as its system HCT-15.
In assay [5] the test system is K562.
Assay [6] concerns KM-20L2.
The test system of assay [7] is KM12.
The subject of assay [8] is M19-MEL.
Assay [9] deals with Malme-3M.
In assay [10] the test system is NCI-H460.
Assay [11] has as its system OVCAR-4.
For assay [12], the system named is OVCAR-5.
The test system of assay [13] is SK-OV-3.
For assay [14], the system named is U-251.
The test system of assay [15] is UACC-257.
Assay [16] relates to UO-31.
Assay [17] deals with XF498.
In assay [18] the test system is A498.
In assay [19] the test system is NCI/ADR-RES.
Assay [20] relates to OVCAR-3.

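In this assay, cells in 96-well plates receive the compound at five concentrations for 48 hours. Endpoints are linearly interpolated between the surrounding concentrations. The concentration for 50% growth inhibition is given as GI50.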 Calls of active or inactive are those of the source. No stated cut-off is given here; in the data, active = GI50 up to about 1.1 µM and inactive = higher.

The values that follow come from ChEMBL document CHEMBL1201862, “PubChem BioAssay data set” (2004).

`O=C(O)C(Cl)(Cl)Cl`: the GI50 in [1] was > 100 µM (inactive); in assay [2] it was > 100 µM (inactive); in [3], > 100 µM (inactive); in assay [4], greater than 100 µM; in assay [5], > 100 µM (inactive); in [6] it was > 100 µM (inactive). Further, the GI50 in assay [7], in assay [8], in assay [9], in assay [10], in [11] and in assay [12] was > 100 µM (inactive) in each case. Moreover, the GI50 in assay [13], in [14], in [15], in assay [16] and in [17] was > 100 µM (inactive) in each case.
In the case of `CC(C)Cc1ccc(C(C)C(=O)N2CCN(/C=C/c3ccccc3)CC2)cc1` (configuration not stated), the GI50 in assay [18] was 16.4 µM (inactive); in [1], 13 µM (inactive); in assay [2], 15.4 µM (inactive); in [3] it was 17.9 µM (inactive); in [4], 13.8 µM; in assay [5] it was 5.58 µM (inactive). Further, the GI50 in assay [6] was 15.5 µM (inactive); in assay [7] it was 15.5 µM (inactive); in [8] it was 15.7 µM (inactive); in assay [9] it was 16.3 µM (inactive); in assay [10], 16.1 µM (inactive); in assay [19], 13.1 µM (inactive). The GI50 in assay [20] is 12.9 µM (inactive); in [11], 11.9 µM (inactive); in assay [12], 13.9 µM (inactive); in assay [13], 16.6 µM (inactive); in assay [14] it was 12.9 µM (inactive); in assay [15], 17.3 µM (inactive). In addition, the GI50 is 10.5 µM (inactive) in assay [16] and 13.8 µM (inactive) in assay [17].
As to `CC(C)Cc1cccc(C(C)C)c1NC(=O)CCC(=O)N/N=C1\C(=N/NC(=O)CCC(=O)Nc2c(C(C)C)cccc2C(C)C)C(c2ccc3c(c2)OCO3)Oc2ccccc21` (configuration not stated), the GI50 was > 100 µM (inactive) in assay [18]; 28.8 µM (inactive) in assay [1]; > 100 µM (inactive) in [2]; > 100 µM (inactive) in assay [3]; 17.1 µM in [4]; 25 µM (inactive) in assay [5]. Also, the GI50 was > 100 µM (inactive) in assay [6]; > 100 µM (inactive) in [7]; > 100 µM (inactive) in assay [8]; 27.9 µM (inactive) in [10]; 74.1 µM (inactive) in assay [11]; > 100 µM (inactive) in assay [12]. Further, the GI50 in [13] was > 100 µM (inactive); in [14], 35 µM (inactive); in [15] it was > 100 µM (inactive); in [16], 43.6 µM (inactive); in [17], > 100 µM (inactive).
Take `CC(C)(C)OC(=O)C1=C(C(=O)OC(C)(C)C)SC2(S1)C(C(=O)OC(C)(C)C)=C(C(=O)OC(C)(C)C)Sc1c2ssc1=O`: the GI50 in assay [18] was > 100 µM (inactive); in assay [1] it was 18.1 µM (inactive); in assay [2], 62.7 µM (inactive); in assay [3] it was > 100 µM (inactive); in assay [4], greater than 100 µM; in assay [5], 41.3 µM (inactive). Also, the GI50 in assay [7] was > 100 µM (inactive); in [9], > 100 µM (inactive); in [10], 51.2 µM (inactive); in assay [19] it was > 100 µM (inactive); in assay [20] it was 48.2 µM (inactive); in assay [11], 24.6 µM (inactive). In addition, the GI50 in assay [12] is 59.8 µM (inactive); in [13], > 100 µM (inactive); in assay [14], 49.1 µM (inactive); in assay [15] it was > 100 µM (inactive); in assay [16], 56.8 µM (inactive).
Regarding `COC(=O)c1ccc(/N=N/N(C)COc2ccc(Br)cc2)cc1`, the GI50 in assay [18] is 37.7 µM (inactive); in assay [1] it was 34 µM (inactive); in assay [2] it was > 100 µM (inactive); in [3] it was 31.7 µM (inactive); in [4] it was greater than 89.7 µM; in assay [5] it was 38.1 µM (inactive). The GI50 was > 81.1 µM (inactive) in assay [6]; 75.5 µM (inactive) in assay [7]; > 100 µM (inactive) in assay [8]; > 100 µM (inactive) in assay [9]; 40.6 µM (inactive) in assay [10]; > 100 µM (inactive) in [19]. For the same molecule, the GI50 is > 100 µM (inactive) in [20]; 54.2 µM (inactive) in assay [11]; > 83.8 µM (inactive) in assay [12]; > 100 µM (inactive) in assay [13]; > 71.3 µM (inactive) in assay [14]; > 71.8 µM (inactive) in assay [15]. Besides, the GI50 in assay [16] and in [17] was > 100 µM (inactive) throughout.
For the molecule `CCOc1ccc(C2=C(Cl)c3cc(OC)c(OC)cc3C2Cl)cc1` (configuration not stated), the GI50 was 19.8 µM (inactive) in assay [18]; 25.2 µM (inactive) in assay [1]; 63.5 µM (inactive) in [2]; 27.1 µM in assay [4]; > 10 µM (inactive) in [5]; 38.8 µM (inactive) in assay [6]. For the same molecule, the GI50 in assay [8] is 45.2 µM (inactive); in assay [9], 33.8 µM (inactive); in assay [10] it was 29.3 µM (inactive); in [20], 59 µM (inactive); in assay [13], > 100 µM (inactive); in assay [14] it was 18.2 µM (inactive). The GI50 is 45 µM (inactive) in assay [16] and 19.6 µM (inactive) in assay [17].
Take `CCCC(=O)OCC1OC(n2ccc(N)nc2=O)C(OC(=O)CCC)C1OC(=O)CCC` (configuration not stated): the GI50 was 5.77 µM (inactive) in assay [18]; 0.203 µM (active) in assay [1]; > 100 µM (inactive) in [2]; > 100 µM (inactive) in [3]; 72.4 µM in assay [4]; > 100 µM (inactive) in assay [5]. The GI50 in assay [6] was 11.4 µM (inactive); in assay [7] it was > 100 µM (inactive); in assay [8] it was 43.2 µM (inactive); in [9] it was > 21.2 µM (inactive); in assay [10] it was 2.74 µM (inactive); in assay [19] it was 68.9 µM (inactive). In addition, the GI50 is > 100 µM (inactive) in assay [20]; > 100 µM (inactive) in assay [11]; 15.5 µM (inactive) in assay [12]; > 100 µM (inactive) in [13]; 35 µM (inactive) in assay [14]; > 31.7 µM (inactive) in assay [15]. Besides, the GI50 in assay [16] was 21.6 µM (inactive).
As for `CC(C)(C)OC(=O)NCCc1ccc(N)cc1`, the GI50 in [1] was > 100 µM (inactive); in [2], > 100 µM (inactive); in assay [3], > 100 µM (inactive); in [4] it was greater than 100 µM; in assay [5], 66.5 µM (inactive); in assay [9], > 100 µM (inactive). For the same molecule, the GI50 in assay [10] is > 100 µM (inactive); in assay [19] it was 32.4 µM (inactive); in assay [20], 19.9 µM (inactive); in assay [11], > 100 µM (inactive); in assay [14], 30.8 µM (inactive); in assay [15], 72.8 µM (inactive). For the same molecule, in assay [16], the GI50 is 4.2 µM (inactive).
For `CC12CCC(C(=O)N3CC=CCC3)(OC1=O)C2(C)C` (configuration not stated), the GI50 was > 100 µM (inactive) in assay [18]; > 82.8 µM (inactive) in assay [1]; > 100 µM (inactive) in assay [2]; > 69 µM (inactive) in assay [3]; greater than 100 µM in [4]; > 100 µM (inactive) in assay [5]. Further, the GI50 in assay [6], in assay [7], in [8], in assay [9], in assay [10] and in [19] was > 100 µM (inactive) throughout. Besides, the GI50 in assay [20], in assay [11], in assay [12], in assay [13], in assay [14] and in [15] was > 100 µM (inactive) in each case. Moreover, the GI50 in assay [16] and in assay [17] was > 100 µM (inactive) in each case.
